{"source": "patent US5795885A", "about": "“Method of inhibiting profileration of cells by administering an aminosterol compound” (priority 1995, dated 1998)", "key": {"[1]": {"test_system": "human umbilical venous endothelial cells", "assay": "LPS/TNF-α-induced neutrophil adherence to human umbilical venous endothelial cells", "conditions": "10, 1.0 or 0.1 μg; three different subjects", "method": "In these experiments, approximately 2×10^5 human umbilical venous cells (passage 2-6) were plated per well. The cells were grown in serum-free media overnight. For induction, either TNF-α (40 ng/ml) was added to endothelial cells for 6 hours prior to adding neutrophils or LPS (100 ng/ml) was added for 4-6 hours. […] After activation of the endothelial cells, approximately 50×10^6 neutrophils were added per well. The plates were gently rocked for 30 minutes at room temperature, followed by removal of the media and washing in serum-free media three times and then photographing of each well. […] A monoclonal Ab to ICAM-1 was a positive control."}, "B16 melanoma": {"test_system": "B16 melanoma", "assay": "B16 melanoma growth in C57B mice", "format": "in vivo, mouse", "experimental": "The growth of B16 melanoma in C57B mice is dependent upon neovascularization.\nUsing the growth of B16 melanoma cells in C57B mice, a recognized model for the evaluation of inhibitors of angiogenesis on the growth of cancers, the effects of subcutaneous, intraperitoneal and oral administration of squalamine were evaluated.\nBased on the idea that tumor growth involves both the clonal expansion of a malignant cell along with the development of a supporting vascular supply, a combination of compound 1436 with squalamine was tested to determine whether it would achieve a synergistic effect on solid tumor growth. This concept was evaluated in the B16 melanoma model.\nAnimals were implanted with B16 melanoma followed by treatment with compound 1436 or 1256 administered in a combined schedule or separately. […] Thus, a combination of these two compounds achieves a therapeutic benefit in tumors dependent on neovascularization that may prevent metastatic spread."}}}
{"smiles": "CC(C)[C@@H](CC[C@@H](C)[C@H]1CC[C@H]2[C@@H]3[C@H](O)C[C@H]4C[C@@H](NCCCNCCCCN)CC[C@]4(C)[C@H]3CC[C@]12C)OS(=O)(=O)O", "note": "[Squalamine, squalamine]", "values": [{"measurement": "inhibition of neutrophil adherence", "setting": "[1]", "value": "no inhibition"}, {"measurement": "suppression of tumor volume", "setting": "B16 melanoma; intraperitoneal", "value": "a dose-dependent suppression of tumor volume was observed"}, {"measurement": "suppression of tumor volume", "setting": "B16 melanoma; oral", "value": "a dose-dependent suppression of tumor volume was observed"}, {"measurement": "body weight and hematologic parameters", "setting": "B16 melanoma; s.c., i.p. or oral treatment", "value": "no significant depression"}, {"measurement": "tumor growth, single agent", "setting": "B16 melanoma; squalamine 15 mg/kg/day, compound 1436 alone in a tolerable schedule", "value": "Neither administration of squalamine at 15 mg/kg/day nor compound 1436 alone in a tolerable schedule could achieve this effect"}, {"measurement": "impact on tumor volume", "setting": "B16 melanoma; squalamine alone 5 mg/kg/day", "value": "no significant impact on tumor volume"}, {"measurement": "suppression of tumor volume", "setting": "B16 melanoma; subcutaneous", "value": "a dose-dependent suppression of tumor volume was observed"}]}
